From ChEMBL document CHEMBL4311992, “Discovery of 3-(((9H-purin-6-yl)amino)methyl)-4,6-dimethylpyridin-2(1H)-one derivatives as novel tubulin polymerization inhibitors for treatment of cancer” (Eur J Med Chem, 2019)

Experiments:
[1] = tested on: Epidermal growth factor receptor (Homo sapiens), P00533 [L861Q]; assay: Inhibition of recombinant human EGFR L861Q mutant (696 to end residues) assessed as residual activity at 10 uM using poly(Glu, Tyr) 4:1 as substrate measured after 40 mins in presence of [gamma33P]ATP by scintillation counting method
[2] = molecular target: Casein kinase I (Homo sapiens) (UniProt Q9HCP0+P78368+P48730+P49674+P48729); assay: Inhibition of CK1 (unknown origin) assessed as residual activity at 10 uM; format: protein assay
[3] = molecular target: Calcium/calmodulin-dependent protein kinase type II subunit gamma (Homo sapiens) (UniProt Q13555); assay: Inhibition of recombinant full-length human CaMK2gamma (1 to 330 residues) assessed as residual activity at 10 uM using calmodulin as substrate measured after 40 mins in presence of [gamma33P]ATP by scintillation counting method
[4] = molecular target: Serine/threonine-protein kinase MRCK alpha (Homo sapiens) (UniProt Q5VT25); assay: Inhibition of recombinant human MRCKalpha (1 to 473 residues) assessed as residual activity at 10 uM using KKRNRTLTV as substrate measured after 40 mins in presence of [gamma33P]ATP by scintillation counting method
[5] = molecular target: Serine/threonine-protein kinase ULK2 (Homo sapiens) (UniProt Q8IYT8); assay: Inhibition of human ULK2 (1 to 306 residues) using casein as substrate measured after 40 mins in presence of [gamma33P]ATP by scintillation counting method; design: scale not given: the % may be the effect or the level left
HCT-116 [6] = assay: Induction of apoptosis in human HCT116 cells assessed as early apoptotic cells at 25 nM measured after 48 hrs by Annexin V-FITC/propidium iodide staining-based flow cytometry (reference value: 0.418%); format: functional
[7] = molecular target: Ephrin type-A receptor 3 (Homo sapiens) (UniProt P29320); assay: Inhibition of recombinant human EphA3 (578 to end residues) assessed as residual activity at 10 uM using poly(Glu, Tyr) 4:1 as substrate measured after 40 mins in presence of [gamma33P]ATP by scintillation counting method
[8] = molecular target: Ephrin type-A receptor 2 (Homo sapiens) (UniProt P29317); assay: Inhibition of recombinant human EphA2 (596 to 900 residues) assessed as residual activity at 10 uM using poly(Glu, Tyr) 4:1 as substrate measured after 40 mins in presence of [gamma33P]ATP by scintillation counting method
[9] = molecular target: ALK tyrosine kinase receptor (Homo sapiens) (UniProt Q9UM73); assay: Inhibition of recombinant human ALK (1058 to end residues) assessed as residual activity at 10 uM using KKKSPGEYVNIEF as substrate measured after 40 mins in presence of [gamma33P]ATP by scintillation counting method
[10] = molecular target: BMP-2-inducible protein kinase (Homo sapiens) (UniProt Q9NSY1); assay: Inhibition of recombinant human BIKepsilon assessed as residual activity at 10 uM using peptide substrate measured after 120 mins in presence of [gamma33P]ATP by scintillation counting method
[11] = tested on: Hepatocyte growth factor receptor (Homo sapiens), P08581 [Y1230D]; assay: Inhibition of recombinant human MET A1209G/V1290L/Y1248D mutant (974 to end residues) assessed as residual activity at 10 uM using KKKGQEEEYVFIE as substrate measured after 40 mins in presence of [gamma33P]ATP by scintillation counting method
[12] = molecular target: Inhibitor of nuclear factor kappa-B kinase subunit alpha (Homo sapiens) (UniProt O15111); assay: Inhibition of recombinant full-length human IKKalpha ([…]) assessed as residual activity at 10 uM using peptide substrate measured after 40 mins in presence of [gamma33P]ATP by scintillation counting method
HCT-116 [13] = assay: Induction of apoptosis in human HCT116 cells measured after 48 hrs by Annexin V-FITC/propidium iodide staining-based flow cytometric analysis; format: functional, cell-based
[14] = molecular target: Cyclin-dependent kinase 5/CDK5 activator 1 (Homo sapiens) (UniProt Q00535+Q15078); assay: Inhibition of recombinant full-length human CDK5/p35 assessed as residual activity at 10 uM using histone H1 as substrate measured after 40 mins in presence of [gamma33P]ATP by scintillation counting method; format: protein-complex assay
SW-620 = assay: Induction of apoptosis in human SW620 cells assessed as necrotic cells at 100 nM measured after 48 hrs by Annexin V-FITC/propidium iodide staining-based flow cytometry (reference value: 2.71%); format: functional
[15] = tested on: Ribosomal protein S6 kinase alpha-1 (Rattus norvegicus), Q63531 [S637N,G697A]; assay: Inhibition of recombinant full-length rat Rsk1 S637N/G697A mutant assessed as residual activity at 10 uM using KKKNRTLSVA as substrate measured after 40 mins in presence of [gamma33P]ATP by scintillation counting method
Mus musculus = species: Mus musculus; assay: Inhibition of recombinant full-length mouse PI3K p110beta/p85beta R123L mutant assessed as residual activity at 10 uM using phosphatidylinositol-4, 5-bisphosphate as substrate measured after 40 mins by HTRF assay
[16] = molecular target: Protein-tyrosine kinase 2-beta (Homo sapiens) (UniProt Q14289); assay: Inhibition of recombinant full-length human Pyk2 assessed as residual activity at 10 uM using poly(Glu, Tyr) 4:1 as substrate measured after 40 mins in presence of [gamma33P]ATP by scintillation counting method
[17] = molecular target: Serine/threonine-protein kinase WNK3 (Homo sapiens) (UniProt Q9BYP7); assay: Inhibition of human WNK3 (1 to 434 residues) using myelin basic protein as substrate measured after 40 mins in presence of [gamma33P]ATP by scintillation counting method; design: scale not given: the % may be the effect or the level left
[18] = molecular target: Non-receptor tyrosine-protein kinase TYK2 (Homo sapiens) (UniProt P29597); assay: Inhibition of human TYK2 (875 to end residues) using GGMEDIYFEFMGGKKK as substrate measured after 40 mins in presence of [gamma33P]ATP by scintillation counting method; design: scale not given: the % may be the effect or the level left
[19] = tested on: Receptor tyrosine-protein kinase erbB-2 (Homo sapiens), P04626 [G778D]; assay: Inhibition of recombinant human ErbB2 G778D mutant (676 to end residues) assessed as residual activity at 10 uM using poly (Glu, Tyr) 4:1 as substrate measured after 40 mins in presence of [gamma33P]ATP by scintillation counting method
[20] = tested on: Hepatocyte growth factor receptor (Homo sapiens), P08581 [D1228N]; assay: Inhibition of recombinant human MET A1209G/V1290L/D1246N mutant (974 to end residues) assessed as residual activity at 10 uM using KKKGQEEEYVFIE as substrate measured after 40 mins in presence of [gamma33P]ATP by scintillation counting method
[21] = tested on: RAF proto-oncogene serine/threonine-protein kinase (Homo sapiens), P04049 [Y340D,Y341D]; assay: Inhibition of recombinant human c-RAF Y340D/Y341D mutant (360 to end residues) assessed as residual activity at 10 uM using inactive MEK1 as substrate measured after 40 mins in presence of [gamma33P]ATP by scintillation counting method

Calcium/calmodulin-dependent protein kinase type II subunit gamma (Homo sapiens), sequence (Q13555 whole entry, the tested form may be a part): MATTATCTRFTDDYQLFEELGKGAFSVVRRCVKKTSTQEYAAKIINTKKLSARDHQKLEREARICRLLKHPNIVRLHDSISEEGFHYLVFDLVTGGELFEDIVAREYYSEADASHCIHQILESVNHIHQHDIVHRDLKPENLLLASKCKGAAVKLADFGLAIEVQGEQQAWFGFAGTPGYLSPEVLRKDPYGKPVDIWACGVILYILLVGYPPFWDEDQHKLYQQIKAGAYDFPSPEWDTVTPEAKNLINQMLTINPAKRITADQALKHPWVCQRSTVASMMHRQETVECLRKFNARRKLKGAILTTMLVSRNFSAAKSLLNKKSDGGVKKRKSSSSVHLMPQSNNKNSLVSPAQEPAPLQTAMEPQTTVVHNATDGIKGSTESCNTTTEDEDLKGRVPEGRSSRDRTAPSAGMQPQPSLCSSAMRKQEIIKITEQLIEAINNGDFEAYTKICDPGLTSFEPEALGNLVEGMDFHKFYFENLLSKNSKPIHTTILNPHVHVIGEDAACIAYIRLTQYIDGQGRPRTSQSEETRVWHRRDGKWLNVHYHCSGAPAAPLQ
Inhibitor of nuclear factor kappa-B kinase subunit alpha (Homo sapiens), sequence (O15111 whole entry): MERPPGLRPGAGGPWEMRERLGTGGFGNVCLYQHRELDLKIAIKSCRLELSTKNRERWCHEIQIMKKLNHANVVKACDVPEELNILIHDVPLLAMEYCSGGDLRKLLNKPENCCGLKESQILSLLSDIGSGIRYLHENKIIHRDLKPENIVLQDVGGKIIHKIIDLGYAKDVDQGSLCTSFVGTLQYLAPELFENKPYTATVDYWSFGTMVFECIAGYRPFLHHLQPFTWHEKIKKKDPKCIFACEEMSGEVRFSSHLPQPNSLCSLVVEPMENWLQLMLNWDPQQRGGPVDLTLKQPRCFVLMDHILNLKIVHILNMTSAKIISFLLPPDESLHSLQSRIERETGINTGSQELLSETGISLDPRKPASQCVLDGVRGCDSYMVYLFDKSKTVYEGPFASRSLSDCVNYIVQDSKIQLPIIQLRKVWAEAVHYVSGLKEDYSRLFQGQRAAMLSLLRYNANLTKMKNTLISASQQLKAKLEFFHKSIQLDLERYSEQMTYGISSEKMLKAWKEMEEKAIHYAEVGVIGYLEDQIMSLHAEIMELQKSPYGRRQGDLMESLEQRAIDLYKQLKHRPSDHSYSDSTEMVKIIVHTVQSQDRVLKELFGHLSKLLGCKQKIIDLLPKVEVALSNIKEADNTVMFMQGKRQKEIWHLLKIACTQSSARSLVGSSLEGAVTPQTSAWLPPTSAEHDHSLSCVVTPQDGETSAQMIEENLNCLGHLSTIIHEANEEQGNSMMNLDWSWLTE
Serine/threonine-protein kinase ULK2 (Homo sapiens), sequence (Q8IYT8 whole entry, the tested form may be a part): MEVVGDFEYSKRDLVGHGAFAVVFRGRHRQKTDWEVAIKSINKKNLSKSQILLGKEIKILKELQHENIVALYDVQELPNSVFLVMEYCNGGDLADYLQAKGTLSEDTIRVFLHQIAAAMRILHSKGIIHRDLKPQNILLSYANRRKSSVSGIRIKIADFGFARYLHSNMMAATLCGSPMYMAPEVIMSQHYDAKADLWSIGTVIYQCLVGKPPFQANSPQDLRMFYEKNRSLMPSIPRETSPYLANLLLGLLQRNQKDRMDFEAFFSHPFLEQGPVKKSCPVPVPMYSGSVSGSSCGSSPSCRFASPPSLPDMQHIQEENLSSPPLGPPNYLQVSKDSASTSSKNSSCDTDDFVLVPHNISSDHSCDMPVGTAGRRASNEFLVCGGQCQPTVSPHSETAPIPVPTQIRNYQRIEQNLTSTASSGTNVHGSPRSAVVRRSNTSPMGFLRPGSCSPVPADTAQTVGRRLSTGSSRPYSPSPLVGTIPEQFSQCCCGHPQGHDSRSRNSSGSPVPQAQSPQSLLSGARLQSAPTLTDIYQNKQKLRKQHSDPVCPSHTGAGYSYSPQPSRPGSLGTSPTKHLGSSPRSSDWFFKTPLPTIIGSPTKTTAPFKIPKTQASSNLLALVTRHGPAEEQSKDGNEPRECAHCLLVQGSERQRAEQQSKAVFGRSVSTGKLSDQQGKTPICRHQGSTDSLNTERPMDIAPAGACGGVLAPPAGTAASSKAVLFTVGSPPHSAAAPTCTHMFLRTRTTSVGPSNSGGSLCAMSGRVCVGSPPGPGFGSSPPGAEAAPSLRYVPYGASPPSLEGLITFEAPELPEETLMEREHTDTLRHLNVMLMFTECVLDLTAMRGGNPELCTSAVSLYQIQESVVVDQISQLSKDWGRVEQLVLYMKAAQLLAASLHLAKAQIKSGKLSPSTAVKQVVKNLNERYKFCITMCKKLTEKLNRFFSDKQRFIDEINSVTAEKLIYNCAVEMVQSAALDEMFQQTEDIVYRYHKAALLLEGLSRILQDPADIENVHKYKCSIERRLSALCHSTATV
Serine/threonine-protein kinase MRCK alpha (Homo sapiens), sequence (Q5VT25 whole entry, the tested form may be a part): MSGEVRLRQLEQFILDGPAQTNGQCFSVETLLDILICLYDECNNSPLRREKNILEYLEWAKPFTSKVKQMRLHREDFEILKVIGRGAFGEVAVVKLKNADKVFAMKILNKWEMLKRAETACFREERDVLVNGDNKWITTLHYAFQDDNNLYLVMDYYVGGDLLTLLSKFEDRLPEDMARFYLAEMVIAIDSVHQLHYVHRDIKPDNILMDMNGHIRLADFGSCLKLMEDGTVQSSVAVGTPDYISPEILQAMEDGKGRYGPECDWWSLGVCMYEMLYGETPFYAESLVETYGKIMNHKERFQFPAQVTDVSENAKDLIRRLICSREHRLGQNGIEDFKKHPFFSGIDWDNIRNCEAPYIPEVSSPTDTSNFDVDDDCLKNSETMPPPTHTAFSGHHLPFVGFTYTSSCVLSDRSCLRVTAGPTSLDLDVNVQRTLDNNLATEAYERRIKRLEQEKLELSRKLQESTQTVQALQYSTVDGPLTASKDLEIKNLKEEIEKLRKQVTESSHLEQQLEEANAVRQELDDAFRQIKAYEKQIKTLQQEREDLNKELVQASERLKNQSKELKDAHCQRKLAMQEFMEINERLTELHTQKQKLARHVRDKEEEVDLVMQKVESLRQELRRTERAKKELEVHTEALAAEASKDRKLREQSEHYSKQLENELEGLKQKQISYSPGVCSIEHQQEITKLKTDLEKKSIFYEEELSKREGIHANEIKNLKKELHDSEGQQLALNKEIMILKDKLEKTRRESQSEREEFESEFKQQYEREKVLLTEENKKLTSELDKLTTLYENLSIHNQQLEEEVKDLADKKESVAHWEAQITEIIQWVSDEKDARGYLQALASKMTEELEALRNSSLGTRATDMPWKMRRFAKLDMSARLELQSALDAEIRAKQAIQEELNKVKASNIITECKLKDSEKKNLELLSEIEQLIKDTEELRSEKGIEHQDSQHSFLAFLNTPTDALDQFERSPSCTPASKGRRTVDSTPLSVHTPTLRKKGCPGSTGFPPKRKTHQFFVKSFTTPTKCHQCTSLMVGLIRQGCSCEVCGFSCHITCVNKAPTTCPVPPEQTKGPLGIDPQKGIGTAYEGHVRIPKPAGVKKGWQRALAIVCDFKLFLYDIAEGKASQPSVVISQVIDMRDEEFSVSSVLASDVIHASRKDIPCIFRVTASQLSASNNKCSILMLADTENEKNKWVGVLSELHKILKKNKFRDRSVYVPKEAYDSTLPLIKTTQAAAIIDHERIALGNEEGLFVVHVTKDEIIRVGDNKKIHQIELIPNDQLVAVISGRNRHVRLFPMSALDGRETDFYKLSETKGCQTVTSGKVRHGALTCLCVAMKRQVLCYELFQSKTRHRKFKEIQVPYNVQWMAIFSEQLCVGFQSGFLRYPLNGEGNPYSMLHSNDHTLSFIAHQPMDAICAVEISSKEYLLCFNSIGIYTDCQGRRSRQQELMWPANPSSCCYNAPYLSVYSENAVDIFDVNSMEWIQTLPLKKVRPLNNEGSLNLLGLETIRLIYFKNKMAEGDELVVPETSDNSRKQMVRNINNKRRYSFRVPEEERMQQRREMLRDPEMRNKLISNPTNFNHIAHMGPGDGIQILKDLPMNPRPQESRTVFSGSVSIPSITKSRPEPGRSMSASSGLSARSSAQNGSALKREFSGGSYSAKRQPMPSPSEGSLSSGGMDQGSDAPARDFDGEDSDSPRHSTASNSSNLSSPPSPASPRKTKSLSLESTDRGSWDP
Cyclin-dependent kinase 5/CDK5 activator 1 (Homo sapiens), sequence (Q00535 whole entry): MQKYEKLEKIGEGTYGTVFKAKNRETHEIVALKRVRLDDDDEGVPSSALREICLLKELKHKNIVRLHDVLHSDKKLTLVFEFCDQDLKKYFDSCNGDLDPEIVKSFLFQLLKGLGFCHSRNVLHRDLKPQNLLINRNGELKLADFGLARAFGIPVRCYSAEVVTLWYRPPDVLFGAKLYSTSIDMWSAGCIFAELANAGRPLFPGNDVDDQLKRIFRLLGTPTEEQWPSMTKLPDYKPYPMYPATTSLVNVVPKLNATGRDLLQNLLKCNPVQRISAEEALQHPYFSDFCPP
Cyclin-dependent kinase 5/CDK5 activator 1 (Homo sapiens), sequence (Q15078 99-307 partner limits assumed): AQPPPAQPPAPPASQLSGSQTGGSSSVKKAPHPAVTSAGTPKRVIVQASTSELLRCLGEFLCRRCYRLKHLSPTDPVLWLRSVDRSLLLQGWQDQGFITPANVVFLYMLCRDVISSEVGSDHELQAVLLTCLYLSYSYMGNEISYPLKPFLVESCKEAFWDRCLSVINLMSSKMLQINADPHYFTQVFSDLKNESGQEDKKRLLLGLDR

`Cc1cc(C)c(CNc2nc(Cl)nc3c2ncn3C2CCCC2)c(=O)[nH]1` was tested. Which Activity [1] did it give?
Its Activity is 98.5%.

What about the Activity [2] of the same compound?
Its Activity is 106%.

And the Activity [3]?
The Activity was 99.5%.

What about the Activity [4] of the same compound?
The Activity was 110%.

What about the Activity [5] of the same compound?
The Activity was 103%.

And the Activity (HCT-116 [6])?
Its Activity is 1.54%.

And the Activity [7]?
The Activity was 102%.

And the Activity [8]?
The Activity was 91%.

And the Activity [9]?
The Activity was 112%.

What about the Activity [10] of the same compound?
The Activity was 83%.

What about the Activity [11] of the same compound?
Its Activity is 102%.

What about the Activity [12] of the same compound?
The Activity was 88.5%.

What about the Activity (HCT-116 [13]) of the same compound?
Its Activity is “Dose-dependent effect”.

And the Activity [14]?
The Activity was 108%.

What about the Activity (SW-620) of the same compound?
The Activity was 6.55%.

What about the Activity [15] of the same compound?
Its Activity is 104%.

And the Activity (Mus musculus)?
Its Activity is 101%.

What about the Activity [16] of the same compound?
Its Activity is 97%.

What about the Activity [17] of the same compound?
Its Activity is 136%.

And the Activity [18]?
Its Activity is 95.5%.

And the Activity [19]?
The Activity was 109%.

What about the Activity [20] of the same compound?
The Activity was 112%.

What about the Activity [21] of the same compound?
The Activity was 96.5%.
